{"source": "ChEMBL document CHEMBL1141443", "about": "“Antifibrotic phenanthrenes of Dendrobium nobile stems” (J Nat Prod, 2007)", "key": {"[1]": {"test": "Antiproliferative activity against rat HSC-T6 cells after 48 hrs by MTT assay", "format": "functional, cell-based"}, "Hepatocyte": {"test_system": "Hepatocyte", "test": "Cytotoxicity against rat hepatocytes at 10 to 100 uM", "format": "cell-based"}, "[2]": {"details": "Rattus norvegicus, HSC-T6, 48 h"}}, "note": "Values joined by “and” are separate entries in the source; they are usually repeats but may differ in a detail not shown here. Equal values may be shown once.", "data": [{"smiles": "COc1ccc2c(ccc3cc(OC)c(O)c(OC)c32)c1", "values": [{"measurement": "IC50", "setting": "[1]; [2]", "result": "> 100", "unit": "µM"}, {"measurement": "Activity", "setting": "Hepatocyte", "result": "Non-toxic"}]}, {"smiles": "COc1ccc2c(c1)CCc1c(-c3c(O)c(OC)c(OC)c4c3CCc3cc(OC)ccc3-4)c(O)c(OC)c(OC)c1-2", "values": [{"measurement": "IC50", "setting": "[1]; [2]", "result": 88.2, "unit": "µM"}, {"measurement": "Activity", "setting": "Hepatocyte", "result": "Non-toxic"}]}, {"smiles": "COc1cc(O)c2c(c1)CCc1cccc(O)c1-2", "values": [{"measurement": "IC50", "setting": "[1]; [2]", "result": "> 100", "unit": "µM"}, {"measurement": "Activity", "setting": "Hepatocyte", "result": "Non-toxic"}]}, {"smiles": "COc1ccc2c(ccc3cc(O)c(OC)c(OC)c32)c1O", "values": [{"measurement": "IC50", "setting": "[1]; [2]", "result": 54.1, "unit": "µM"}, {"measurement": "Activity", "setting": "Hepatocyte", "result": "Non-toxic"}]}, {"smiles": "COc1ccc2c(c1O)CCc1cc(O)c(OC)c(OC)c1-2", "values": [{"measurement": "IC50", "setting": "[1]; [2]", "result": 35.7, "unit": "µM"}, {"measurement": "Activity", "setting": "Hepatocyte", "result": "Non-toxic"}]}, {"smiles": "COc1cc2cc(O)c(O)c(OC)c2c2c(O)cccc12", "values": [{"measurement": "IC50", "setting": "[1]; [2]", "result": 9, "unit": "µM"}, {"measurement": "Activity", "setting": "Hepatocyte", "result": "Non-toxic"}]}, {"smiles": "COc1ccc2c(c1)CCc1cc(OC)c(O)c(OC)c1-2", "values": [{"measurement": "IC50", "setting": "[1]; [2]", "result": "> 100", "unit": "µM"}, {"measurement": "Activity", "setting": "Hepatocyte", "result": "Non-toxic"}]}, {"smiles": "COc1ccc2c(c1)CCc1cc(O)c(OC)c(OC)c1-2", "values": [{"measurement": "IC50", "setting": "[1]; [2]", "result": "> 100", "unit": "µM"}, {"measurement": "Activity", "setting": "Hepatocyte", "result": "Non-toxic"}]}, {"smiles": "COc1c(O)cc2ccc3cccc(O)c3c2c1OC", "values": [{"measurement": "IC50", "setting": "[1]; [2]", "result": "> 100", "unit": "µM"}, {"measurement": "Activity", "setting": "Hepatocyte", "result": "Non-toxic"}]}, {"smiles": "COc1cc2ccc3cccc(O)c3c2c(OC)c1O", "note": "[BULBOPHYLLANTHRIN]", "values": [{"measurement": "IC50", "setting": "[1]; [2]", "result": 50.9, "unit": "µM"}, {"measurement": "Activity", "setting": "Hepatocyte", "result": "Non-toxic"}]}, {"smiles": "COc1ccc2c(c1)CCc1cc(O)cc(OC)c1-2", "note": "[COELONIN]", "values": [{"measurement": "IC50", "setting": "[1]; hsc-t6", "result": "13.4 µM and 69.1 µM"}, {"measurement": "Activity", "setting": "Hepatocyte", "result": "Non-toxic"}]}, {"smiles": "COC1=CC(=O)c2ccc3cc(OC)cc(O)c3c2C1=O", "note": "[DENBINOBIN]", "values": [{"measurement": "IC50", "setting": "[1]; [2]", "result": 15.2, "unit": "µM"}, {"measurement": "Activity", "setting": "Hepatocyte", "result": "Non-toxic"}]}, {"smiles": "COc1cc2c(c(O)c1OC)-c1ccc(O)cc1CC2", "note": "[EPHEMERANTHOL A]", "values": [{"measurement": "IC50", "setting": "[1]; [2]", "result": 79.2, "unit": "µM"}, {"measurement": "Activity", "setting": "Hepatocyte", "result": "Non-toxic"}]}, {"smiles": "O=C(O[C@@H]1Cc2c(O)cc(O)cc2O[C@@H]1c1cc(O)c(O)c(O)c1)c1cc(O)c(O)c(O)c1", "note": "[EPIGALOCATECHIN GALLATE]", "values": [{"measurement": "IC50", "setting": "[1]; [2]", "result": 9.9, "unit": "µM"}]}, {"smiles": "COc1c(O)cc2c(c1OC)-c1ccc(O)cc1CC2", "note": "[ERIANTHRIDIN]", "values": [{"measurement": "IC50", "setting": "[1]; [2]", "result": 73.2, "unit": "µM"}, {"measurement": "Activity", "setting": "Hepatocyte", "result": "Non-toxic"}]}, {"smiles": "COc1c(O)c(O)cc2ccc3cccc(O)c3c12", "note": "[FIMBRIOL B]", "values": [{"measurement": "IC50", "setting": "[1]; [2]", "result": 11, "unit": "µM"}, {"measurement": "Activity", "setting": "Hepatocyte", "result": "Non-toxic"}]}, {"smiles": "COc1cc(O)c2c(c1)CCc1cc(O)ccc1-2", "note": "[LUSIANTHRIDIN]", "values": [{"measurement": "IC50", "setting": "[1]; [2]", "result": 61.2, "unit": "µM"}, {"measurement": "Activity", "setting": "Hepatocyte", "result": "Non-toxic"}]}, {"smiles": "COc1c(O)cc2ccc3cc(O)ccc3c2c1OC", "note": "[NUDOL]", "values": [{"measurement": "IC50", "setting": "[1]; [2]", "result": "> 100", "unit": "µM"}, {"measurement": "Activity", "setting": "Hepatocyte", "result": "Non-toxic"}]}, {"smiles": "COc1c(OC)c2cc(O)cc(OC)c2c2c(O)cccc12", "note": "[PLICATOL A]", "values": [{"measurement": "IC50", "setting": "[1]; [2]", "result": "> 100", "unit": "µM"}, {"measurement": "Activity", "setting": "Hepatocyte", "result": "Non-toxic"}]}]}
